From patent US9505745B2, “Enhancer of zeste homolog 2 inhibitors” (GlaxoSmithKline Intellectual Property (No.2) Limited, priority 2013, dated 2016) come the findings set out here.

Each structure is given as a SMILES string. Where a name gives a salt, the structure may show the parent alone.

This assay concerns the target EZH2 within the PRC2 complex (Homo sapiens (Human), UniProt Q15910). The assay can be described thus: EZH2 methyltransferase SPA, biotinylated histone H3K27 peptide substrate (Assay Protocol 2). The assay is classed as biochemical. The note with it: 3H-SAM, ≦10 nM approaches limit of detection. As for the experimental part:
Compounds contained herein were evaluated for their ability to inhibit the methyltransferase activity of EZH2 within the PRC2 complex. Human PRC2 complex was prepared by co-expressing each of the 5 member proteins (FLAG-EZH2, EED, SUZ12, RbAp48, AEBP2) in Sf9 cells followed by co-purification. Enzyme activity was measured in a scintillation proximity assay (SPA) where a tritiated methyl group is transferred from 3H-SAM to a lysine residue on a biotinylated, unmethylated peptide substrate derived from histone H3. The peptides were captured on streptavidin-coated SPA beads and the resulting signal was read on a ViewLux plate reader.
Part A. Compound Preparation
• 4. Prepare 10 mM stock of compounds from solid in 100% DMSO. • 5. Set up an 11-point serial dilution (1:4 dilution, top concentration 10 mM) in 100% DMSO for each test compound in a 384 well plate leaving columns 6 and 18 for DMSO controls. • 6. Dispense 10 nL of compound from the dilution plate into reaction plates (Corning, 384-well polystyrene NBS, Cat#3673). Part B. Reagent Preparation Prepare the following solutions: • 7. 1× Base Buffer, 50 mM Tris-HCl, pH 8, 2 mM MgCl2: Per 1 L of base buffer, combine 1 M Tris-HCl, pH 8 (50 mL), 1 M MgCl2 (2 mL), and distilled water (948 mL). • 8. 1× Assay Buffer: Per 10 mL of 1× Assay Buffer, combine 1× Base Buffer (9.96 mL), 1 M DTT (40 uL), and 10% Tween-20 (1 uL) to provide a final concentration of 50 mM Tris-HCl, pH 8, 2 mM MgCl2, 4 mM DTT, 0.001% Tween-20. • 9. 2× Enzyme Solution: Per 10 mL of 2× Enzyme Solution, combine 1× Assay Buffer (9.99 mL) and 3.24 uM EZH2 5 member complex (6.17 uL) to provide a final enzyme concentration of 1 nM. • 10. SPA Bead Solution: Per 1 mL of SPA Bead Solution, combine Streptavidin coated SPA beads (PerkinElmer, Cat#RPNQ0261, 40 mg) and 1× Assay Buffer (1 mL) to provide a working concentration of 40 mg/mL. • 11. 2× Substrate Solution: Per 10 mL of 2× Substrate Solution, combine 40 mg/mL SPA Bead Solution (375 uL), 1 mM biotinylated histone H3K27 peptide (200 uL), 12.5 uM 3H-SAM (240 uL; 1 mCi/mL), 1 mM cold SAM (57 uL), and 1× Assay Buffer (9.13 mL) to provide a final concentration of 0.75 mg/mL SPA Bead Solution, 10 uM biotinylated histone H3K27 peptide, 0.15 uM 3H-SAM (˜12 uCi/mL 3H-SAM), and 2.85 uM cold SAM. • 12. 2.67× Quench Solution: Per 10 mL of 2.67× Quench Solution, combine 1× Assay Buffer (9.73 mL) and 10 mM cold SAM (267 uL) to provide a final concentration of 100 uM cold SAM. Part C. Assay Reaction in 384-well Grenier Bio-One Plates Compound Addition • 3. Stamp 10 nL/well of 1000× Compound to test wells (as noted above). • 4. Stamp 10 nL/well of 100% DMSO to columns 6 & 18 (high and low controls, respectively). Assay • 10. Dispense 5 uL/well of 1× Assay Buffer to column 18 (low control reactions). • 11. Dispense 5 uL/well of 2× Substrate Solution to columns 1-24 (note: substrate solution should be mixed to ensure homogeneous bead suspension before dispensing into matrix reservoir). • 12. Dispense 5 uL/well of 2× Enzyme Solution to columns 1-17, 19-24. • 13. Incubate the reaction for 60 min at room temperature. Quench • 5. Dispense 6 uL/well of the 2.67× Quench Solution to columns 1-24. • 6. Seal assay plates and spin for ˜1 min at 500 rpm. • 7. Dark adapt plates in the ViewLux instrument for 15-60 min. Read plates • 2. Read the assay plates on the Viewlux Plate Reader utilizing the 613 nm emission filter or clear filter (300 s exposure). Reagent addition can be done manually or with automated liquid handler. Results
Percent inhibition was calculated relative to the DMSO control for each compound concentration and the resulting values were fit using standard IC50 fitting parameters within the ABASE data fitting software package.

Chain of EZH2 within the PRC2 complex (Q15910 whole entry): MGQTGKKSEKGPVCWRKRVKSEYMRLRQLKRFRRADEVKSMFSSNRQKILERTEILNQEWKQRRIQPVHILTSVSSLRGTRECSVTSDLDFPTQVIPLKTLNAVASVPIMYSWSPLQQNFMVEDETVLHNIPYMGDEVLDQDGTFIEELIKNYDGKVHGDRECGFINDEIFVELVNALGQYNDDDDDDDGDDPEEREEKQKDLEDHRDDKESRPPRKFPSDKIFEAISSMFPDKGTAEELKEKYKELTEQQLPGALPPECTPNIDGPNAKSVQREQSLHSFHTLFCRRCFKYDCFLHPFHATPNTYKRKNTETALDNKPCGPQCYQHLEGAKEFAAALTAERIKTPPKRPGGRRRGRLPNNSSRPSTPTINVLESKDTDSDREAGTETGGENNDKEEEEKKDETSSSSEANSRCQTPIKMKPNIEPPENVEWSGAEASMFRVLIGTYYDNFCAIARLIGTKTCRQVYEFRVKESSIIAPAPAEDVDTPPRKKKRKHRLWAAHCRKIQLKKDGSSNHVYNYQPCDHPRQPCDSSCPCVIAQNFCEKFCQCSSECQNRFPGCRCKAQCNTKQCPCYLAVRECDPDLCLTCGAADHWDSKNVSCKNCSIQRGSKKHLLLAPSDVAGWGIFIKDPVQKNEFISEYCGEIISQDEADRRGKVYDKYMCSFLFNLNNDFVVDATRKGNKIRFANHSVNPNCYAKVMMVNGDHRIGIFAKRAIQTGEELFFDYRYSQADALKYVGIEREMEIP
Chain of EZH2 within the PRC2 complex (O75530 whole entry partner): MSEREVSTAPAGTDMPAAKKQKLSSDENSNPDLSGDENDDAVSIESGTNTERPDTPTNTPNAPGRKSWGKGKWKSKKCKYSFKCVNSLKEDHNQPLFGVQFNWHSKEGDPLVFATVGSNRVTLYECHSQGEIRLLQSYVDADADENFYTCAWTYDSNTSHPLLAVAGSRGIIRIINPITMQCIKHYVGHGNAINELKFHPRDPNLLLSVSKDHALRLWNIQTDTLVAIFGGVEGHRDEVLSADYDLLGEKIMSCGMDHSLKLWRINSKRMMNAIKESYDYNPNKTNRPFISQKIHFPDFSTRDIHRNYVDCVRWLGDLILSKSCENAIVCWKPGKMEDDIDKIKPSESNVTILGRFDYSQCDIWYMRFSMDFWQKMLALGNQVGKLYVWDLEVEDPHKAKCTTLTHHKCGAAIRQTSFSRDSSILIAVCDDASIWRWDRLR
Chain of EZH2 within the PRC2 complex (Q15022 whole entry partner): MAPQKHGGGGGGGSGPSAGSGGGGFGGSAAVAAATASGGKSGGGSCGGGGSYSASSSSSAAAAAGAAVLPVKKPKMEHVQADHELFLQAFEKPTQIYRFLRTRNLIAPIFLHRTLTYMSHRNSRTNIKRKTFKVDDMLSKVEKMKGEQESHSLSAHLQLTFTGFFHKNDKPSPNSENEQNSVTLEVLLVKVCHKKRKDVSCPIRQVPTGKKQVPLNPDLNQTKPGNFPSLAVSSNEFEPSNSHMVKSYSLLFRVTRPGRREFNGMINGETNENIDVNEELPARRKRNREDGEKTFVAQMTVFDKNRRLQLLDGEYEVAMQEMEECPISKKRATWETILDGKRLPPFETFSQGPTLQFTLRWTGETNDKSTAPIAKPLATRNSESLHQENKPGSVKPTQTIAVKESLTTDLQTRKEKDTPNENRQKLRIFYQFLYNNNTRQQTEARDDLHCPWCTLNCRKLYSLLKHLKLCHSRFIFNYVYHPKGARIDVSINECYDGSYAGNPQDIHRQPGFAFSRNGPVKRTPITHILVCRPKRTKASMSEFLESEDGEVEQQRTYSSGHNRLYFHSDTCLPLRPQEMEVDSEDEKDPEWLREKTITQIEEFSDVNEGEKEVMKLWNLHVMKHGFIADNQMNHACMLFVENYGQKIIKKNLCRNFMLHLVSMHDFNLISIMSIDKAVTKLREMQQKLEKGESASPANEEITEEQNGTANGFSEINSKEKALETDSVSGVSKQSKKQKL
Chain of EZH2 within the PRC2 complex (Q09028 whole entry partner): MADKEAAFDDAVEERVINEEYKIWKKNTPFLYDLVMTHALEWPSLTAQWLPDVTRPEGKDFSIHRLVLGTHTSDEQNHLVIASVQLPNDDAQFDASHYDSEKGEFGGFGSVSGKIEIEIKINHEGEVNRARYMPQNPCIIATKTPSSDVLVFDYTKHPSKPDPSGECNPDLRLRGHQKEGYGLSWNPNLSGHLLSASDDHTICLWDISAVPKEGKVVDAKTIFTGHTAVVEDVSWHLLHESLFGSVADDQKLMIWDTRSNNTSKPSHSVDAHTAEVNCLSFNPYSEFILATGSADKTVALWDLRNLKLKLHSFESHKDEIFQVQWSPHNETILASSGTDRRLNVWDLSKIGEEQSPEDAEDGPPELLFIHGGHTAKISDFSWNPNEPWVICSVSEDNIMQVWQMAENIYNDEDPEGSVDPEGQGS
Chain of EZH2 within the PRC2 complex (Q6ZN18 whole entry partner): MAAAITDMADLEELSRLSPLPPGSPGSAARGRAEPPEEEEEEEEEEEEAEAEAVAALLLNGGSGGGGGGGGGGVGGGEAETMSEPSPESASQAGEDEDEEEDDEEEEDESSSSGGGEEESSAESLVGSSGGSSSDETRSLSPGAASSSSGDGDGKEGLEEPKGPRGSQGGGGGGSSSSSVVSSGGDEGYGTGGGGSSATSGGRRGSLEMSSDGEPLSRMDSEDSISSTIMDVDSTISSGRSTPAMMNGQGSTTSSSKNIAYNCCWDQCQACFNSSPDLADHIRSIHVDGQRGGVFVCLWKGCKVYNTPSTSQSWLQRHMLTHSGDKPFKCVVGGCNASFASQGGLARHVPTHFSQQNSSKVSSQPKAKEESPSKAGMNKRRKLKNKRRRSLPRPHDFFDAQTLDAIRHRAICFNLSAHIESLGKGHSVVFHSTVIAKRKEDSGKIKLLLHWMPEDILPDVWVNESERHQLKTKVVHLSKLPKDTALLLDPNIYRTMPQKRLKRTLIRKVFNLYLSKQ

For the compound `CCN(c1sc(C)c(C(=O)NCc2c(C)cc(C)[nH]c2=O)c1C)C1CCOCC1` [Example 54, N-((4,6-Dimethyl-2-oxo-1,2-dihydropyridin-3-yl)methyl)-5-(ethyl(tetrahydro-2H-pyran-4-yl)amino)-2,4-dimethylthiophene-3-carboxamide hydrochloride], the 50% inhibitory concentration (IC50) was 32 nM. Then `CCN(c1sc(C#N)c(C(=O)NCc2c(C)cc(C)[nH]c2=O)c1C)C1CCOCC1` [Example 55, 2-Cyano-N-((4,6-dimethyl-2-oxo-1,2-dihydropyridin-3-yl)methyl)-5-(ethyl(tetrahydro-2H-pyran-4-yl)amino)-4-methylthiophene-3-carboxamide hydrochloride], with 79 nM. Take `CCN(c1sc(N2CCN(C)CC2)c(C(=O)NCc2c(C)cc(C)[nH]c2=O)c1C)C1CCOCC1` [Example 56, N-((4,6-Dimethyl-2-oxo-1,2-dihydropyridin-3-yl)methyl)-5-(ethyl(tetrahydro-2H-pyran-4-yl)amino)-4-methyl-2-(4-methylpiperazin-1-yl)thiophene-3-carboxamide hydrochloride]: the half-maximal inhibitory concentration (IC50) stood at 501 nM.

`CCN(c1sc(C2CCN(C(=O)OC(C)(C)C)C2)c(C(=O)NCc2c(C)cc(C)[nH]c2=O)c1C)C1CCOCC1` (stereo not shown) [Example 57, tert-Butyl 3-(3-(((4,6-dimethyl-2-oxo-1,2-dihydropyridin-3-yl)methyl)carbamoyl)-5-(ethyl(tetrahydro-2H-pyran-4-yl)amino)-4-methylthiophen-2-yl)pyrrolidine-1-carboxylate] came in with an IC50 of 200 nM. The figure for `CCN(c1sc(C2CCNC2)c(C(=O)NCc2c(C)cc(C)[nH]c2=O)c1C)C1CCOCC1` (stereo not shown) [Example 58, N-((4,6-Dimethyl-2-oxo-1,2-dihydropyridin-3-yl)methyl)-5-(ethyl(tetrahydro-2H-pyran-4-yl)amino)-4-methyl-2-(pyrrolidin-3-yl)thiophene-3-carboxamide hydrochloride] is 794 nM. In turn, `CCN(c1sc(C2CCN(C(=O)OC(C)(C)C)CC2)c(C(=O)NCc2c(C)cc(C)[nH]c2=O)c1C)C1CCOCC1` [Example 59, tert-Butyl 4-(3-(((4,6-dimethyl-2-oxo-1,2-dihydropyridin-3-yl)methyl)carbamoyl)-5-(ethyl(tetrahydro-2H-pyran-4-yl)amino)-4-methylthiophen-2-yl)piperidine-1-carboxylate] registered a concentration for half-maximal inhibition (IC50) of 316 nM. Regarding `CCN(c1sc(C2CCNCC2)c(C(=O)NCc2c(C)cc(C)[nH]c2=O)c1C)C1CCOCC1` [Example 60, N-((4,6-Dimethyl-2-oxo-1,2-dihydropyridin-3-yl)methyl)-5-(ethyl(tetrahydro-2H-pyran-4-yl)amino)-4-methyl-2-(piperidin-4-yl)thiophene-3-carboxamide hydrochloride], the IC50 stood at 631 nM. The figure for `CCN(c1sc(C2=CCN(C)CC2)c(C(=O)NCc2c(C)cc(C)[nH]c2=O)c1C)C1CCOCC1` [Example 61, N-((4,6-Dimethyl-2-oxo-1,2-dihydropyridin-3-yl)methyl)-5-(ethyl(tetrahydro-2H-pyran-4-yl)amino)-4-methyl-2-(1-methyl-1,2,3,6-tetrahydropyridin-4-yl)thiophene-3-carboxamide] is 501 nM; for `CCN(c1sc(C2CCN(S(C)(=O)=O)C2)c(C(=O)NCc2c(C)cc(C)[nH]c2=O)c1C)C1CCOCC1` (stereo not shown) [Example 62, N-((4,6-Dimethyl-2-oxo-1,2-dihydropyridin-3-yl)methyl)-5-(ethyl(tetrahydro-2H-pyran-4-yl)amino)-4-methyl-2-(1-(methylsulfonyl)pyrrolidin-3-yl)thiophene-3-carboxamide] it is 501 nM; for `CCN(c1sc(C2CCN(S(C)(=O)=O)CC2)c(C(=O)NCc2c(C)cc(C)[nH]c2=O)c1C)C1CCOCC1` [Example 63, N-((4,6-Dimethyl-2-oxo-1,2-dihydropyridin-3-yl)methyl)-5-(ethyl(tetrahydro-2H-pyran-4-yl)amino)-4-methyl-2-(1-(methylsulfonyl)piperidin-4-yl)thiophene-3-carboxamide] it is 501 nM.

The compound `CCN(C)[C@H]1CC[C@H](N(CC)c2scc(C(=O)NCc3c(C)cc(C)[nH]c3=O)c2C)CC1` [Example 64, N-((4,6-dimethyl-2-oxo-1,2-dihydropyridin-3-yl)methyl)-5-(ethyl((trans)-4-(ethyl(methyl)amino)cyclohexyl)amino)-4-methylthiophene-3-carboxamide] gave a half-maximal inhibitory concentration (IC50) of 16 nM. The figure for `CCOC(=O)N(CC)c1scc(C(=O)NCc2c(C)cc(C)[nH]c2=O)c1C` [Example 65, Ethyl (4-(((4,6-dimethyl-2-oxo-1,2-dihydropyridin-3-yl)methyl)carbamoyl)-3-methylthiophen-2-yl)(ethyl)carbamate] is 200 nM; for `CCN(c1scc(C(=O)NCc2c(C)cc(C)[nH]c2=O)c1C)C1CCN(C(C)C)CC1` [Example 66, N-((4,6-dimethyl-2-oxo-1,2-dihydropyridin-3-yl)methyl)-5-(ethyl(1-isopropylpiperidin-4-yl)amino)-4-methylthiophene-3-carboxamide] it is 63 nM. Then `CCN(c1scc(C(=O)NCc2c(C)cc(C)[nH]c2=O)c1C)C1CCNCC1F` (stereo not shown) [Example 67, N-((4,6-dimethyl-2-oxo-1,2-dihydropyridin-3-yl)methyl)-5-(ethyl(3-fluoropiperidin-4-yl)amino)-4-methylthiophene-3-carboxamide], with 20 nM; and `Cc1cc(C)c(CNC(=O)c2csc(N3CCCC3C3CCNCC3)c2C)c(=O)[nH]1` (stereo not shown) [Example 68, N-((4,6-dimethyl-2-oxo-1,2-dihydropyridin-3-yl)methyl)-4-methyl-5-(2-(piperidin-4-yl)pyrrolidin-1-yl)thiophene-3-carboxamide hydrochloride], with 79 nM; and `Cc1cc(C)c(CNC(=O)c2csc(N3CCCCC3C3CCNCC3)c2C)c(=O)[nH]1` (stereo not shown) [Example 69, 5-([2,4′-Bipiperidin]-1-yl)-N-((4,6-dimethyl-2-oxo-1,2-dihydropyridin-3-yl)methyl)-4-methylthiophene-3-carboxamide hydrochloride], with 501 nM. As for `Cc1cc(C)c(CNC(=O)c2csc(-c3cccc4c3CCNC4)c2C)c(=O)[nH]1` [Example 70, N-((4,6-Dimethyl-2-oxo-1,2-dihydropyridin-3-yl)methyl)-4-methyl-5-(1,2,3,4-tetrahydroisoquinolin-5-yl)thiophene-3-carboxamide hydrochloride], the IC50 was determined as 100 nM. `C/C=C(/CCN1CCOCC1)c1scc(C(=O)NCc2c(C)cc(C)[nH]c2=O)c1C` [Example 71, (Z)—N-((4,6-Dimethyl-2-oxo-1,2-dihydropyridin-3-yl)methyl)-4-methyl-5-(5-morpholinopent-2-en-3-yl)thiophene-3-carboxamide] returned an IC50 of 1000 nM.

With `C/C=C(/CCCN1CCN(C)CC1)c1scc(C(=O)NCc2c(C)cc(C)[nH]c2=O)c1C` [Example 72, (Z)—N-((4,6-Dimethyl-2-oxo-1,2-dihydropyridin-3-yl)methyl)-4-methyl-5-(6-(4-methylpiperazin-1-yl)hex-2-en-3-yl)thiophene-3-carboxamide], the IC50 amounted to 251 nM.

Broadly, the IC50 is the midpoint of a concentration-inhibition curve.
